From patent US8431378B2, “Aminotransferase, gene encoding the same, and methods of using them” (Kaneka Corporation, priority 2005, dated 2013)
“Also recorded” adds a separate entry of the source.

Experiments:
[1] = test system: purified enzyme MTA (aminotransferase); test: Specificity for amino acceptor, (S)-α-phenethylamine as donor (Examples 5 and 6); format: biochemical, Pseudomonas fluorescens KNK08-18; settings: for Activity as amino acceptor (in words): donor (S)-α-phenethylamine
Method: The purified enzyme obtained in Example 1 was analyzed in terms of substrate specificity regarding amino acceptors. In 20 μL of the purified Enzyme, 380 μL of a 0.1M potassium phosphate buffer containing 14 mM of (S)-α-phenethylamine and 14 mM of a ketone compound of various type was added. After the mixture was reacted at 30° C. for 1 hour, 20 μL of 3N hydrochloric acid was added therein to stop the reaction. Results of the analysis are shown in Table 3, in which the relative activities are shown where the activity with pyruvic acid as the amino acceptor is 100.
(§1) [Analysis Conditions of High-Performance Liquid Chromatography]
(§2) • Column: Cosmosil 5C8-MS (Nacalai Tesque Inc.) • Carrier: 30 mM potassium phosphate buffer (pH 2.5)/acetonitrile/methanol=4/1/1 (by volume) • Flow Rate: 0.9 mL/min • Detection: 254 nm
The purified enzyme obtained in Example 1 was analyzed in terms of substrate specificity regarding amino acceptors in the same manner as in Example 5.

[2] = test system: purified enzyme MTA (aminotransferase); test: Specificity for amino donor, pyruvic acid as acceptor, dabsylated alanine quantified (Example 4); format: biochemical, Pseudomonas fluorescens KNK08-18; settings: for Amino group transfer activity as amino donor (in words): acceptor pyruvic acid; for Relative Activity (%): amino donor varied, 14 mM, acceptor 14 mM pyruvic acid, pH 7.5, 30° C., 1 hour, activity with (S)-α-phenethylamine is 100
Method: (§3) The amino group transfer activity measurement is carried out as follows: Firstly, 20 μL of a purified enzyme solution having a protein concentration of 0.2 mg/mL is added to 380 μL of a substrate solution having the following composition. After carrying out reaction at 30° C. for 1 hour therein, 20 μL of 3N hydrochloric acid is added therein to stop the reaction. Then, into 20 μL of the resultant reaction mixture, a 0.2M sodium carbonate aqueous solution of 80 μL and an acetone solution of 200 μL containing dabsyl chloride by 3.3 mg/mL are added. Then, the resultant mixture is reacted at 70° C. for 10 min. After 20 μL of acetic acid is added therein with stirring. The reaction mixture thus obtained is analyzed by high-performance liquid chromatography thereby to quantitatively analyze dabsylated alanine.
as §3, with “purified enzyme obtained in Example 1 was analyzed in terms of its reactivity to typical substrates of ω-amino acid transaminase.” for “amino group transfer activity measurement is carried out as follows:”, “was” for “is”, “[…]” for “380 μL”, “were” for “are”, “alanine. Results of the analysis are shown in Table 2, which the amino group transfer activities are shown as relative activities where the activity with (S)-α-phenethylamine as the amino donor is 100.” for “alanine.”
(§4) [Substrate Solution Composition]
(§5) Pyridoxal phosphate 0.02 mM
(§6) Potassium Phosphate Buffer (pH 7.5) 0.1M
(§7) [High-Performance Liquid Chromatography Analysis Conditions]
(§8) Column: Deverosil ODS-HG-3 (Nomura Chemical Co., Ltd.)
(§9) Carrier: Acetonitrile/0.045M acetate buffer (pH 4.1)=35/65 (by volume)

[3] = test system: purified enzyme MTA (aminotransferase); test: Specificity for amino donor, 7-methoxy-2-tetralone as amino acceptor (Example 3); format: biochemical, Pseudomonas fluorescens KNK08-18; settings: for Relative Activity (%): amino donor varied, 14 mM (racemic 28 mM), acceptor 14 mM 7-methoxy-2-tetralone, 30° C., 1 hour, activity with (S)-α-phenethylamine is 100
Method: In 20 μL of the purified Enzyme, 380 μL of a 0.1M potassium phosphate buffer containing 14 mM of 7-methoxy-2-tetralone and 14 mM (in case of the racemic amine compound, 28 mM)) of an amine compound of various type was added. After the mixture was reacted at 30° C. for 1 hour, 20 μL of 3N hydrochloric acid was added therein to stop the reaction. The reaction solution thus obtained was analyzed via high-performance liquid chromatography so as to quantitatively analyze 7-methoxy-2-aminotetralin thus obtained. Thereby, the amino group transfer activities with the various amino compounds were analyzed.
as §1, §2

MTA (present invention) = test: Substrate specificity, comparison with ω-amino acid transaminase (Example 7), Enzyme A; format: biochemical, Pseudomonas fluorescens KNK08-18; settings: for Reactivity as amino donor (in words): Enzyme A (MTA), receptor pyruvic acid or 2-ketoglutaric acid; for Relative activity, Enzyme A: donor 14 mM, activity with (S)-α-phenethylamine is 100
Method: The purified enzyme obtained in Example 1 was analyzed in terms of its reactivity to typical substrates of ω-amino acid transaminase. Firstly, 20 μL of a purified enzyme solution having a protein concentration of 0.2 mg/mL was added to 380 μL of a substrate solution having the following composition. After carrying out reaction at 30° C. for 1 hour therein, 20 μL of 3N hydrochloric acid was added therein to stop the reaction. Then, into 20 μL of the resultant reaction mixture, a 0.2M sodium carbonate aqueous solution of 80 μL and an acetone solution of 200 μL containing dabsyl chloride by 3.3 mg/mL were added. Then, the resultant mixture was reacted at 70° C. for 10 min. After 20 μL of acetic acid was added therein with stirring. The reaction mixture thus obtained was analyzed by high-performance liquid chromatography thereby to quantitatively analyze dabsylated alanine or […]. Results of the analysis are shown in Table 5, in which the relative activities are shown where the activity with (S)-α-phenethylamine as the amino donor is 100. In Table 5, the values of activities of ω-amino acid:pyruvic acid transaminase and 4-amino butyric acid: 2-ketoglutaric acid transaminase are from the literatures “Agric. Biol. Chem. 41, 1701-1706 (1977), Arch. Biochem. Biophys. 200, 156-164 (1980)”.
as §4
Pyruvic acid or 2-ketoglutaric acid 14 mM
as §5, §6, §7, §8, §9

[4] = target: T1, ω-Amino Acid: Pyruvic Acid Transaminase (Pseudomonas putida, UniProt P28269); settings: amino group receptor pyruvic acid; values from the literature; cited from earlier work
T1 sequence (P28269 1-449): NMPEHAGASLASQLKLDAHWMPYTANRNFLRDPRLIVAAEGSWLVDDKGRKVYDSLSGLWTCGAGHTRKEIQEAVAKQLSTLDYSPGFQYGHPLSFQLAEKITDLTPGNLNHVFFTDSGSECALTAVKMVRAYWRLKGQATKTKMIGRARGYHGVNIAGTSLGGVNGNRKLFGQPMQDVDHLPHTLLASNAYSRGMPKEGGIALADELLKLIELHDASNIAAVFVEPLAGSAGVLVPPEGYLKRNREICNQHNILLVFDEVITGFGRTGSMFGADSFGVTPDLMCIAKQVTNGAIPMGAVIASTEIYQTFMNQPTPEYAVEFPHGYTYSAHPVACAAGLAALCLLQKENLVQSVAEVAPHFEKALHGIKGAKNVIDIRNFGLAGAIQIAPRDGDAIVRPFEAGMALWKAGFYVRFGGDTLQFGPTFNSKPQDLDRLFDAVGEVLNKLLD

[5] = test system: 4-Aminobutylic Acid: 2-Ketoglutaric Acid Transaminase; settings: amino group receptor 2-ketoglutaric acid; values from the literature; cited from earlier work
[6] = Table 4: amino acceptor varied, same manner as in Example 5, donor (S)-α-phenethylamine
[7] = amino group receptor pyruvic acid 14 mM
[8] = Table 3: amino acceptor varied, 14 mM, donor 14 mM (S)-α-phenethylamine, 30° C., 1 hour, activity with pyruvic acid is 100
[9] = amino group receptor 2-ketoglutaric acid 14 mM

## CC(=O)c1cnccn1 [Acetylpyrazine]
[1]; [6]
  Relative Activity (%): 100%

## C[C@H](N)c1ccccc1 [(S)-α-phenethylamine, reference compound]
[2]
  Amino group transfer activity as amino donor (in words): active
  Relative Activity (%): 100%
[3]; acceptor 7-methoxy-2-tetralone
  Amino group transfer activity as amino donor (in words): especially high activity
[3]
  Relative Activity (%): 100%
MTA (present invention)
  Reactivity as amino donor (in words): highly active
MTA (present invention); [7]
  Relative activity, Enzyme A: 100

## CC(C)N [isopropylamine]
[3]
  Relative Activity (%): 10%

## CC(=O)c1cccnc1 [3-Acetylpyridine]
[1]; [6]
  Relative Activity (%): 10%

## CCCC=O [Butylaldehyde]
[1]; [8]
  Relative Activity (%): 18%

## CCN [n-ethylamine]
[3]
  Relative Activity (%): 6%

## COc1ccc2c(c1)CC(=O)CC2 [7-Methoxy-2-Tetralone]
[1]; [6]
  Relative Activity (%): 10%

## CC(N)CCc1ccccc1 (racemic) [±3-amino-1-phenylbutane]
[3]
  Relative Activity (%): 90%

## O=Cc1ccccc1 [Benzaldehyde]
[1]; [8]
  Relative Activity (%): 2%

## CC(C)CN [isobutylamine]
[3]
  Relative Activity (%): 8%

## CCCCC(N)CC (racemic) [±3-heptylamine]
[3]
  Relative Activity (%): 19%

## CCCN [n-propylamine]
[3]
  Relative Activity (%): 6%

## CCCCCN [n-amylamine]
[3]
  Relative Activity (%): 11%

## COc1cccc(C(C)=O)c1 [3′-Methoxyacetophenone]
[1]; [6]
  Relative Activity (%): 10%

## O=CC(=O)O [Glyoxylic Acid]
[1]; [8]
  Relative Activity (%): 99%
[1]
  Activity as amino acceptor (in words): high activity; also recorded: active

## NCCS(=O)(=O)O [Taurine]
[2]
  Amino group transfer activity as amino donor (in words): no activity; also recorded: substantially inactive
  Relative Activity (%): 0%
MTA (present invention)
  Reactivity as amino donor (in words): not reactive
MTA (present invention); [9]
  Relative activity, Enzyme A: 0
MTA (present invention); [7]
  Relative activity, Enzyme A: 0
[4]
  Relative activity, Enzyme B: 132
[5]
  Relative activity, Enzyme C: 8

## O=C1CCN(Cc2ccccc2)C1 [1-Benzyl-3-Pyrrolidinone]
[1]; [6]
  Relative Activity (%): 20%

## NCCCCN [Putrescine]
[2]
  Amino group transfer activity as amino donor (in words): no activity; also recorded: substantially inactive
  Relative Activity (%): 0%
MTA (present invention)
  Reactivity as amino donor (in words): not reactive
MTA (present invention); [7]
  Relative activity, Enzyme A: 0
[4]
  Relative activity, Enzyme B: 18

## CC(=O)c1ccc(Cl)cc1 [4′-Chloroacetophenone]
[1]; [6]
  Relative Activity (%): 30%

## CCCCCC(C)=O [2-Heptane]
[1]; [6]
  Relative Activity (%): 7%

## CCCC(C)N (racemic) [±2-pentylamine]
[3]
  Relative Activity (%): 60%

## NCCc1ccccc1 [β-phenethylamine]
[3]
  Relative Activity (%): 22%

## O=C1CCc2ccccc2C1 [2-Tetralone]
[1]; [6]
  Relative Activity (%): 17%

## NCc1ccccc1 [benzylamine]
[3]
  Relative Activity (%): 35%

## NCCC(=O)O [β-alanine]
[2]
  Amino group transfer activity as amino donor (in words): substantially inactive
  Relative Activity (%): 0%
[2]; listed as Valanine
  Amino group transfer activity as amino donor (in words): no activity
[3]
  Relative Activity (%): 0%
MTA (present invention)
  Reactivity as amino donor (in words): not reactive
MTA (present invention); [9]
  Relative activity, Enzyme A: 0
MTA (present invention); [7]
  Relative activity, Enzyme A: 0
[4]
  Relative activity, Enzyme B: 100
[5]
  Relative activity, Enzyme C: 0

## CCC(C)N (racemic) [±2-butylamine]
[3]
  Relative Activity (%): 48%

## CCCCN [n-butylamine]
[3]
  Relative Activity (%): 7%

## C[C@H](N)C(=O)O [L-alanine]
[3]
  Relative Activity (%): 20%

## CC(=O)C(=O)O [Pyruvic Acid, reference compound]
[1]; [8]
  Relative Activity (%): 100%
[1]
  Activity as amino acceptor (in words): high activity; also recorded: active

## CCC(=O)C(=O)O [2-Ketobutyric Acid]
[1]; [8]
  Relative Activity (%): 2%

## CCCCCC(C)N (racemic) [±2-heptylamine]
[3]
  Relative Activity (%): 93%

## CC(=O)c1cccc(C(F)(F)F)c1 [3′-Trifluoromethylacetophenone]
[1]; [6]
  Relative Activity (%): 40%

## O=C(O)CCC(=O)C(=O)O [2-Ketoglutaric Acid]
[1]; [8]
  Relative Activity (%): 0%
[1]
  Activity as amino acceptor (in words): no activity

## NCCCC(=O)O [4-Aminobutyric Acid]
MTA (present invention)
  Reactivity as amino donor (in words): not reactive
MTA (present invention); [9]
  Relative activity, Enzyme A: 0
[5]
  Relative activity, Enzyme C: 100

## CCC=O [Propionaldehyde]
[1]; [8]
  Relative Activity (%): 5%

## CCCC(=O)C(=O)O [2-Keto-n-Valeric Acid]
[1]; [8]
  Relative Activity (%): 0.1%

## COc1ccc(CC(C)N)cc1OC (racemic) [±3′,4′-dimethoxyamphetamine]
[3]
  Relative Activity (%): 88%

## NC1CCCCC1 [cyclohexylamine]
[3]
  Relative Activity (%): 22%

## CC(=O)CCc1ccccc1 [Benzylacetone]
[1]; [6]
  Relative Activity (%): 33%

## CC(=O)c1cccc(O)c1 [3′-Hydroxyacetophenone]
[1]; [6]
  Relative Activity (%): 3%

## NCCCCC(N)C(=O)O (racemic) [DL-lysine]
[2]
  Amino group transfer activity as amino donor (in words): no activity; also recorded: substantially inactive
  Relative Activity (%): 0%
[3]
  Relative Activity (%): 0%

## COCC(C)=O [Methoxypropanone]
[1]; [6]
  Relative Activity (%): 13%
